Measurements reported in PMC7612312 (Nature chemical biology, 2019).

System: clathrin heavy chain (CHC; antibody recognises both CHC1 and CHC2)
Experiment: CETSA
Format: biochemical, Arabidopsis thaliana

EC50: 123 ± 1.13 µM
Compound: O=S(=O)(Nc1ccccc1)c1ccc(Br)s1 [compound 14, ES9-17]
